# pEC50, pIC50: −log10 of the molar value.
# Key:
# Pim 1 = Pim 1 (Homo sapiens, UniProt P11309); assay: Pim 1 AlphaScreen assay (high ATP)
# [1] = system: KMS11 (human myeloma cell line); assay: Cell Proliferation Assay (CellTiter-Glo, 3 days); type: cell-based; details: KMS-11, 72 h, KMS11-luc cells
# Method in brief: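 EC50 from CellTiter-Glo luminescence after 3-day, 37° C compound treatment of KMS11 cells seeded at 2000 per well in IMDM plus 10% FBS.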
# Pim 2 = Pim 2 (Homo sapiens, UniProt Q9P1W9); assay: Pim 2 AlphaScreen assay (high ATP)
# Sequence of Pim 2 (Q9P1W9 whole entry): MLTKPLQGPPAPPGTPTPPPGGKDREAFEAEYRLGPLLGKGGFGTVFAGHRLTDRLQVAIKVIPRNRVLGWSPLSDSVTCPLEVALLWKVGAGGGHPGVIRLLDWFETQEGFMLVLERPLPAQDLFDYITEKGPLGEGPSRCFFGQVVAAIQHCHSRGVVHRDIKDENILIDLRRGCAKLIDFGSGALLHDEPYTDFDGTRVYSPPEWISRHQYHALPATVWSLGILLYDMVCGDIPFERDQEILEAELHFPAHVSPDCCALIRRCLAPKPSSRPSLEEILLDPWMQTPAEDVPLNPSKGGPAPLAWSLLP
# Pim 3 = Pim 3 (Homo sapiens, UniProt Q86V86); assay: Pim 3 AlphaScreen assay (high ATP)
# Experimental: The activity of Pim 1, Pim 2, & Pim 3 is measured using a homogeneous bead based system quantifying the amount of phosphorylated peptide substrate resulting from kinase-catalyzed phosphoryl transfer to a peptide substrate. Compounds to be tested are dissolved in 100% DMSO and directly distributed to a white 384-well plate at 0.25 μl per well. […] This is followed by the addition of 5 μl/well of Pim 1, Pim 2 or Pim 3 kinase in assay buffer (concentrations described below). Final assay concentrations (described below) are in 2.5% DMSO. The reactions are performed for ˜2 hours, then stopped by the addition of 10 μl of 0.75 μg/ml anti-phospho Ser/Thr antibody (Cell Signaling), 10 μg/ml Protein A AlphaScreen beads (Perkin Elmer), and 10 μg/ml streptavidin coated AlphaScreen beads in stop/detection buffer (50 mM EDTA, 95 mM Tris, pH=7.5, 0.01% Tween-20). The stopped reactions are incubated overnight in the dark. The phosphorylated peptide is detected via an oxygen anion initiated chemiluminescence/fluorescence cascade using the Envision plate reader (Perkin Elmer).
# Sequence of Pim 1 (P11309 whole entry): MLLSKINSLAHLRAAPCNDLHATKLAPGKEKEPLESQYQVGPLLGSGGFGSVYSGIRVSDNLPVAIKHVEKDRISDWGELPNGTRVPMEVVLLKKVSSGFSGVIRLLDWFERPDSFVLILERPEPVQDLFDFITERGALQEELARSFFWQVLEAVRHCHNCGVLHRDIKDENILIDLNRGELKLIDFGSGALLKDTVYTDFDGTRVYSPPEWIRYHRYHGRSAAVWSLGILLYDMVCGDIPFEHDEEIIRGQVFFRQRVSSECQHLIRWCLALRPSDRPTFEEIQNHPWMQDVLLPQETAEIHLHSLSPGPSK
pIC50 (Pim 1),pEC50 [1],pIC50 (Pim 2),pIC50 (Pim 3),Structure (SMILES)
10.70,7.77,8.93,9.16,"COC1(c2cc(F)c(-c3nc(C(=O)Nc4cnccc4N4C[C@@H](N)[C@H](O)[C@@H](C)C4)ccc3F)c(F)c2)COC1 [Example 88, N-(4-((3R,4R,5S)-3-amino-4-hydroxy-5-methylpiperidin-1-yl)pyridin-3-yl)-6-(2,6-difluoro-4-(3-methoxyoxetan-3-yl)phenyl)-5-fluoropicolinamide]"
9.89,6.64,8.02,8.31,"CCOCc1cc(F)c(-c2nc(C(=O)Nc3cnccc3[C@H]3C[C@@H](N)[C@@H](O)[C@@H](C)C3)ccc2F)c(F)c1 [Example 134, N-(4-((1R,3R,4S,5S)-3-amino-4-hydroxy-5-methylcyclohexyl)pyridin-3-yl)-6-(4-(ethoxymethyl)-2,6-difluorophenyl)-5-fluoropicolinamide]"
11.00,7.60,8.80,8.95,"C[C@@H]1C[C@H](N)C[C@H](c2ccncc2NC(=O)c2ccc(F)c(-c3c(F)cc(C4COC4)cc3F)n2)C1 [Example 68, N-(4-((1R,3S,5S)-3-amino-5-methylcyclohexyl)pyridin-3-yl)-6-(2,6-difluoro-4-(oxetan-3-yl)phenyl)-5-fluoropicolinamide]"
10.40,7.66,8.56,8.67,"COCc1cc(F)c(-c2nc(C(=O)Nc3cnccc3[C@@H]3C[C@H](C)C[C@H](N)C3)ccc2F)c(F)c1 [Example 41, N-(4-((1R,3S,5S)-3-amino-5-methylcyclohexyl)pyridin-3-yl)-6-(2,6-difluoro-4-(methoxymethyl)phenyl)-5-fluoropicolinamide]"
10.70,7.55,8.69,9.41,"CCOc1ccc(F)c(-c2nc(C(=O)Nc3cnccc3N3C[C@@H](N)[C@H](O)[C@@H](C)C3)ccc2F)c1F [Example 216, N-(4-((3R,4R,5S)-3-amino-4-hydroxy-5-methylpiperidin-1-yl)pyridin-3-yl)-6-(3-ethoxy-2,6-difluorophenyl)-5-fluoropicolinamide]"
11.00,7.48,9.03,9.77,"C[C@@H]1C[C@H](N)C[C@H](c2ccncc2NC(=O)c2ccc(F)c(-c3c(F)cc(C4(O)CCCC4)cc3F)n2)C1 [Example 163, N-(4-((1R,3S,5S)-3-amino-5-methylcyclohexyl)pyridin-3-yl)-6-(2,6-difluoro-4-(1-hydroxycyclopentyl)phenyl)-5-fluoropicolinamide]"
11.00,7.60,8.88,9.74,"C[C@H]1CN(c2ccncc2NC(=O)c2ccc(F)c(-c3c(F)cc(CC(C)(C)O)cc3F)n2)C[C@@H](N)[C@@H]1O [Example 131, N-(4-((3R,4R,5S)-3-amino-4-hydroxy-5-methylpiperidin-1-yl)pyridin-3-yl)-6-(2,6-difluoro-4-(2-hydroxy-2-methylpropyl)phenyl)-5-fluoropicolinamide]"
10.40,7.11,8.73,8.64,"C[C@H]1C[C@@H](c2ccncc2NC(=O)c2ccc(F)c(-c3c(F)cc(C(C)(C)C#N)cc3F)n2)C[C@@H](N)[C@@H]1O [Example 165, N-(4-((1R,3R,4R,5S)-3-amino-4-hydroxy-5-methylcyclohexyl)pyridin-3-yl)-6-(4-(2-cyanopropan-2-yl)-2,6-difluorophenyl)-5-fluoropicolinamide]"
10.70,7.89,8.92,9.47,"C[C@H]1CN(c2ccncc2NC(=O)c2ccc(F)c(-c3c(F)cc(OCCO)cc3F)n2)C[C@@H](N)[C@@H]1O [Example 21, N-(4-((3R,4R,5S)-3-amino-4-hydroxy-5-methylpiperidin-1-yl)pyridin-3-yl)-6-(2,6-difluoro-4-(2-hydroxyethoxy)phenyl)-5-fluoropicolinamide]"
10.70,7.19,8.88,8.94,"C[C@@H]1C[C@H](N)C[C@H](c2ccncc2NC(=O)c2ccc(F)c(-c3c(F)cc(C4(F)CCOCC4)cc3F)n2)C1 [Example 126, N-(4-((1R,3S,5S)-3-amino-5-methylcyclohexyl)pyridin-3-yl)-6-(216-difluoro-4-(4-fluorotetrahydro-2H-pyran-4-yl)phenyl)-5-fluoropicolinamide]"
10.52,7.28,8.57,8.73,"COC(C)(C)c1cc(F)c(-c2nc(C(=O)Nc3cnccc3[C@@H]3C[C@H](C)C[C@H](N)C3)ccc2F)c(F)c1 [Example 49, N-(4-((1R,3S,5S)-3-amino-5-methylcyclohexyl)pyridin-3-yl)-6-(2,6-difluoro-4-(2-methoxypropan-2-yl)phenyl)-5-fluoropicolinamide]"
10.70,7.64,8.78,9.37,"C[C@@H]1C[C@H](N)C[C@H](c2ccncc2NC(=O)c2ccc(F)c(-c3c(F)cc4c(c3F)OCC[C@@]4(C)O)n2)C1 [Example 240, N-(4-((1R,3S,5S)-3-amino-5-methylcyclohexyl)pyridin-3-yl)-6-((R)-6,8-difluoro-4-hydroxy-4-methylchroman-7-yl)-5-fluoropicolinamide]"
10.70,6.84,9.04,9.24,"C[C@H]1C[C@@H](c2ccncc2NC(=O)c2ccc(F)c(-c3c(F)cc4c(c3F)OCC4)n2)C[C@@H](N)[C@@H]1O [Example 180, N-(4-((1R,3R,4R,5S)-3-amino-4-hydroxy-5-methylcyclohexyl)pyridin-3-yl)-6-(5,7-difluoro-2,3-dihydrobenzofuran-6-yl)-5-fluoropicolinamide]"
9.80,6.66,7.76,7.62,"C[C@@H]1C[C@H](N)C[C@H](c2ccncc2NC(=O)c2ccc(F)c(-c3c(F)cc([S@+](C)[O-])cc3F)n2)C1 [Example 227, N-(4-((1R,3S,5S)-3-amino-5-methylcyclohexyl)pyridin-3-yl)-6-(2,6-difluoro-4-((S)-methylsulfinyl)phenyl)-5-fluoropicolinamide]"
11.00,6.81,9.28,9.89,"C[C@H]1CN(c2ccncc2NC(=O)c2ccc(F)c(-c3c(F)cc(O[C@H]4CCCOC4)cc3F)n2)C[C@@H](N)[C@@H]1O [Example 106, N-(4-((3R,4R,5S)-3-amino-4-hydroxy-5-methylpiperidin-1-yl)pyridin-3-yl)-6-(2,6-difluoro-4-((S)-tetrahydro-2H-pyran-3-yloxy)phenyl)-5-fluoropicolinamide]"
11.00,7.02,9.19,9.77,"C[C@H]1CN(c2ccncc2NC(=O)c2ccc(F)c(-c3c(F)cc(O[C@@H]4CCCOC4)cc3F)n2)C[C@@H](N)[C@@H]1O [Example 105, N-(4-((3R,4R,5S)-3-amino-4-hydroxy-5-methylpiperidin-1-yl)pyridin-3-yl)-6-(2,6-difluoro-4-((R)-tetrahydro-2H-pyran-3-yloxy)phenyl)-5-fluoropicolinamide]"
10.52,7.96,9.03,9.43,"C[C@H]1CN(c2ccncc2NC(=O)c2ccc(F)c(-c3c(F)cc([S@+](C)[O-])cc3F)n2)C[C@@H](N)[C@@H]1O [Example 25, N-(4-((3R,4R,5S)-3-amino-4-hydroxy-5-methylpiperidin-1-yl)pyridin-3-yl)-6-(2,6-difluoro-4-((S)-methylsulfinyl)phenyl)-5-fluoropicolinamide]"
11.00,6.75,9.01,9.34,"COCCOc1cc(F)c(-c2nc(C(=O)Nc3cnccc3[C@H]3C[C@@H](N)C[C@@H](C(C)C)C3)ccc2F)c(F)c1 [Example 175, N-(4-((1R,3S,5S)-3-amino-5-isopropylcyclohexyl)pyridin-3-yl)-6-(2,6-difluoro-4-(2-methoxyethoxy)phenyl)-5-fluoropicolinamide]"
10.10,6.49,8.48,8.62,"C[C@H]1C[C@@H](c2ccncc2NC(=O)c2ccc(F)c(-c3c(F)cc(COC4CCOCC4)cc3F)n2)C[C@@H](N)[C@@H]1O [Example 138, N-(4-((1R,3R,4R,5S)-3-amino-4-hydroxy-5-methylcyclohexyl)pyridin-3-yl)-6-(2,6-difluoro-4-((tetrahydro-2H-pyran-4-yloxy)methyl)phenyl)-5-fluoropicolinamide]"
10.70,7.55,8.56,9.35,C[C@H]1C[C@@H](c2ccncc2NC(=O)c2ccc(F)c(-c3c(F)cc(OC4CCOCC4)cc3F)n2)C[C@@H](N)[C@@H]1O [Example 59]
10.30,6.73,8.48,8.83,"CC(C)OCc1cc(F)c(-c2nc(C(=O)Nc3cnccc3[C@H]3C[C@@H](N)[C@H](O)[C@@H](C)C3)ccc2F)c(F)c1 [Example 148, N-(4-((1R,3R,4R,5S)-3-amino-4-hydroxy-5-methylcyclohexyl)pyridin-3-yl)-6-(2,6-difluoro-4-(isopropoxymethyl)phenyl)-5-fluoropicolinamide]"
10.30,7.26,8.32,8.54,"COC1(c2cc(F)c(-c3nc(C(=O)Nc4cnccc4[C@H]4C[C@@H](N)[C@H](O)[C@@H](C)C4)ccc3F)c(F)c2)COC1 [Example 52, N-(4-((1R,3R,4R,5S)-3-amino-4-hydroxy-5-methylcyclohexyl)pyridin-3-yl)-6-(2,6-difluoro-4-(3-methoxyoxetan-3-yl)phenyl)-5-fluoropicolinamide]"

# From patent publication US20120225062A1 (priority 2011, published 2012)
